Test results as given in patent US9387206B2, “Therapeutic approaches for treating Alzheimer's disease” (PHARNEXT, priority 2009, dated 2016).

Experiments:
[1] = system: rat primary cortical neurons; test: LDH release, human Aβ1-42 toxicity on rat primary cortical cells; assay type: cell-based; conditions: 0.32 nM alone; Aβ1-42 2.5 μM
Description: Primary rat cortical neurons are cultured as described previously.
Briefly, Aβ1-42 peptide was reconstituted in defined culture medium at 40 μM (mother solution) and was slowly shacked at +37° C. for 3 days in the dark for aggregation. The control medium was prepared in the same conditions.
After 10 days of neuron culture, the drug was solved in culture medium (+0.1% DMSO) and then pre-incubated with neurons for 1 hour before the Aβ1-42 application (in a final volume per culture well of 100 μl). […] Cortical neurons were intoxicated for 24 hours. Three separate cultures were performed per condition, 6 wells per condition.
Estradiol-β at 100 and 150 nM were used as a reference test compound and BDNF at 50 ng/ml was used as a positive control. Three separate cultures were performed per condition, […].
Estradiol-β and BDNF were solved in culture medium and pre-incubated for 1 h before the aggregated amyloid-β1-42 application.
Lactate Dehydrogenase (LDH) Activity Assay
This colorimetric assay for the quantification of cell toxicity is based on the measurement of lactate dehydrogenase (LDH) activity released from the cytosol of dying cells into the supernatant.
All values are expressed as mean±s.e.mean of the 3 cultures (n=6 per condition). Statistical analyses were done on the different conditions (ANOVA followed by the Dunnett's test when it was allowed, Statview software version 5.0).

[2] = system: rat primary cortical neurons; test: Neurite outgrowth in beta-amyloid (Aβ25-35) intoxicated rat primary cortical neuron culture; assay type: cell-based; conditions: Aβ25-35 20 μM, 2 days; drug added 1 hour before
[3] = system: NGF-differentiated PC12 cells; test: MTT viability of NGF-differentiated PC12 after Aβ25-35 intoxication; assay type: cell-based, rat; conditions: Aβ25-35 10 μM, 24 hours, drug added 1 hour before
Description: PC12 (Pheochromocytoma Rat, ATCC ref: CRL-1721) cells from [NT] CRL-1721) were rapidly thawed in 37° C. water. The supernatant was immediately put in 9 ml of a PC12 proliferation medium containing Dulbecco's modified Eagle's medium DMEM-F12 (Pan Biotech ref: P04-41450) with 15% heat-inactivated horse serum (Invitrogen ref: 16050-130), 2.5% of fetal bovine serum (FBS; Invitrogen ref: 16000-036), 1% of Penicillin 10,000 U/ml and Streptomycin 10 mg/ml (PS; Pan Biotech ref: P06-07100) and 1% of L-glutamine 200 mM (Pan Biotech ref: P04-80100). Cells were centrifuged (800 rounds/min, 4° C. for 5 min) and added in 5 ml PC12 proliferation medium, viable cells were counted with a Malassez cell using the […] exclusion test (Sigma). Then the cells were seeded at 3.10^4 cells per cm^2 in PC12 proliferation medium in 75 cm^2 plastic flasks (Greiner Ref: 658175) precoated with poly-L-lysine (10 μg/ml, Sigma Ref: P2636). Medium was changed every other day. After 3 days of culture, when cells reached 80% of confluence, they were washed in HBSS without calcium and magnesium (Pan Biotech Ref: […] P10-023100). The enzymatic reaction was stopped with PC12 proliferation medium added by 0.5 mg/ml of DNAse 1 grade 2 (Pan Biotech Ref: 760-37780100). […]

[4] = system: rat primary cortical neurons; test: LDH release in Aβ25-35 intoxicated rat primary cortical neuron culture; assay type: cell-based; conditions: Aβ25-35 20 μM, 2 days; drug added 1 hour before
Description: Primary rat cortical neurons are cultured as described by Singer et al., 1999. Briefly pregnant female rats of 15 days gestation are killed by cervical dislocation (Rats Wistar; Janvier) and the foetuses removed from the uterus. The cortexes are removed and placed in ice-cold medium of Leibovitz (L15; Invitrogen) containing 1% of Penicillin-Streptomycin (PS; Invitrogen) and 1% of bovine serum albumin (BSA; Sigma). Cortexes are dissociated by trypsinisation for 20 min at 37° C. (Trypsin EDTA 1×; Invitrogen) diluted in PBS without calcium and magnesium. The reaction is stopped by the addition of Dulbecco's modified Eagle's medium (DMEM; Invitrogen) containing DNAase I grade II (0.1 mg/ml; Roche Diagnostics) and 10% of foetal calf serum (FCS; Invitrogen). Cells are then mechanically dissociated by 3 passages through a 10 ml pipette. Cells are then centrifuged at 180×g for 10 min at 10° C. […] Viable cells are counted in a Neubauer cytometer using the trypan blue exclusion test. Cells are seeded at a density of 30,00-cells/well in 96-well plates (wells are pre-coated with poly-L-lysine (10 μg/ml; […] After 6 days of culture, cells are incubated with drugs (5 concentrations). After 1 hour, cells are intoxicated by 20 μM of β-amyloid (25-35; Sigma) in defined medium without BDNF but together with drugs. Cortical neurons are intoxicated for 2 days. After 2 days of culture, the supernatant is collected and analyzed with the Cytotoxicity Detection Kit (LDH, Roche Applied Sciences). This colorimetric assay for the quantification of cell death is based on the measurement of lactate dehydrogenase (LDH) activity released from the cytosol of damaged cells into the supernatant. The optic density (DO) is assessed by spectrophotometer at 492 nm wavelength by a multiscan apparatus (Thermo, Ref Ascent). […] Two days after this incubation, LDH release in the culture medium is quantified, reflecting the level of cell death.

For `CC(=O)NCCCS(=O)(=O)O` [Acamprosate], the “Effect on Aβ1-42 intoxication, LDH release, drug alone” value [1] was “no significant effect” and the “Prevention of Aβ25-35 intoxication, neurite outgrowth (neurite length)” value [2] was “significantly prevented”.

With `CCCNC(C)C(=O)Nc1ccccc1C` (stereo not drawn) [Prilocain, Prilocaine] the “Prevention of Aβ25-35 intoxication, cell viability (MTT)” value [3] was “significantly prevented” and the “Prevention of Aβ25-35 intoxication, cell viability (MTT)” value ([3]; listed as prilocaine) was “strong neuroprotective effect”.

For `NS(=O)(=O)Cc1noc2ccccc12` [Zonisamide], the “Prevention of Aβ25-35 intoxication, neurite outgrowth (neurite length)” value [2] was “significantly prevented” and the “Prevention of Aβ25-35 intoxication, LDH release” value [4] was “significantly prevented”.
